Patent US20260166170A1, “ANTIBODY DRUG CONJUGATE COMPRISING NMT INHIBITOR AND ITS USE” (MyricX Pharma Limited, priority 2022, published 2026)

Tests used:
[1] = tested on: BT474 breast cancer cells; assay: Orthotopic breast cancer xenograft model; type: in vivo, NOD/SCID mice; settings: trastuzumab or ADC Example 1 2.5 or 5 mg/kg; NMT inhibitor 1 2 mg/kg
Method: During the study, body weights were measured three times weekly for all animals. Animals were given Diet Gel for the entire duration on the study.

LNCaP tumours = assay: LNCaP prostate cancer xenograft model; type: in vivo, male NOD SCID mice; settings: IV, Q7D (x3); for Tumour growth inhibition (TGI, %): day 28
Source text: Adjusted p value calculated by Kruskal-Wallis test and Dunn's multiple comparisons relative to vehicle control. […] C is the mean tumour volume of the control Group 1 mice on the measurement day and C0 is the mean tumour volume on Study Day 0.

[2] = tested on: VCaP human prostate cancer xenograft; assay: VCaP prostate cancer xenograft model; type: in vivo, non-castrated male CB17/SCID mice
Method: The objective of this study was to evaluate preclinically the in vivo therapeutic efficacy of ADC Example 4 in the treatment of subcutaneous VCaP human prostate cancer xenograft model in non-castrated male CB17/SCID mice.
In this study, 144 mice were inoculated subcutaneously in the right front flank region with 1×10^7 viable VCaP tumour cells resuspended in 0.1 mL of PBS mixed with Matrigel (1:1) for tumour development on Study Day−20. 80 mice were assigned to 8 treatment groups when tumour volumes averaged ˜162.16 mm^3 on Study Day 0. Dosing commenced the following day and all animals were dosed intravenously with ADC Example 4, ifinatamab-deruxtecan (ifinatamab-Dxd) or unconjugated ifinatamab. All mice received two doses of test agent, on Study Day 1 and Study Day 8. The study was terminated on Study Day 30.

[3] = tested on: JIMT-1 human breast xenograft; assay: JIMT-1 breast cancer xenograft model; type: in vivo
Source text: The study was terminated on the Study Day 60.

| Molecule | LNCaP tumour volume compared to vehicle control (LNCaP tumours; 5 mg/kg) | LNCaP tumour volume compared to vehicle control (LNCaP tumours; 10 mg/kg) | Tumour growth inhibition (TGI, %) (LNCaP tumours; 10 mg/kg) | tumour volumes compared to vehicle alone ([2]; 2.5 mg/kg) | tumour volumes compared to vehicle alone ([2]; 5 mg/kg) | tumour volumes compared to vehicle alone ([3]; 2.5 mg/kg) | tumour volumes compared to vehicle alone ([3]; 5 mg/kg) | other results |
| --- | --- | --- | --- | --- | --- | --- | --- | --- |
| CNCc1cnc2ccc(-c3ccc(F)c(F)c3OCCc3c(C(O)C(C)(C)C)nn(C)c3C)cn12 (centres unmarked) [NMT inhibitor 1, 1-(4-(2-(2,3-difluoro-6-(3-((methylamino)methyl)imidazo[1,2-a]pyridin-6-yl)phenoxy)ethyl)-1,5-dimethyl-1H-pyrazol-3-yl)-2,2-dimethylpropan-1-ol] | – | – | – | – | – | – | – | body weights of mice compared to vehicle control [1]: decreased significantly |
| ifinatamab | no significant effect | no significant effect | 13.0% | no significant difference | no significant difference | – | – | – |
| sacituzumab | – | – | – | – | – | no significant difference | significant decrease | – |
| sacituzumab govitecan [reference compound] | – | – | – | – | – | significant decrease | significant decrease | – |
| ifinatamab-DXd: ifinatamab-deruxtecan, comparator ADC (conjugate, chains of the INN, looked up, deruxtecan (DXd) payload, ifinatamab-deruxtecan, comparator ADC) VH: QVQLVQSGAEVKKPGSSVKVSCKASGYTFTNYVMHWVRQAPGQGLEWMGYINPYNDDVKYNEKFKGRVTITADESTSTAYMELSSLRSEDTAVYYCARWGYYGSPLYYFDYWGQGTLVTVSS VL: EIVLTQSPATLSLSPGERATLSCRASSRLIYMHWYQQKPGQAPRPLIYATSNLASGIPARFSGSGSGTDFTLTISSLEPEDFAVYYCQQWNSNPPTFGQGTKVEIK | slowed the growth of LNCaP tumours to a lesser extent | significantly reduced the mean volume of LNCaP tumours | 75.0% | no significant difference | significantly higher tumour volume | – | – | Day 28 tumour volume (mm^3, mean ± SEM) (LNCaP tumours; 5 mg/kg): 364.6 ± 51.7 mm^3; Tumour growth inhibition (TGI, %) (LNCaP tumours; 5 mg/kg): 58.8%; Day 28 tumour volume (mm^3, mean ± SEM) (LNCaP tumours; 10 mg/kg): 259.5 ± 50.3 mm^3; ΔTGI (Study Day 17) ([2]; 2.5 mg/kg IV QW × 2 weeks): 5.24%; ΔTGI (Study Day 17) ([2]; 5 mg/kg IV QW × 2 weeks): 2.86% |
